Patent US4182712A, “5-Substituted thiadiazole ureas” (Mobil Oil Corporation, priority 1977, dated 1980)

What was measured:
crops and weed species = test: Pre- and post-emergence herbicide tests, overall (Tables III-VI); type: in vivo; conditions: in words
Description: (§1) All crop and weed species were planted individually in 3" plastic pots containing potting soil. Four seeds each of corn, cotton, and snapbeans were seeded to a depth equal to the diameter of the seed. All other species were surface seeded and sprinkled with screened soil in an amount sufficient to cover the seed. Immediately after planting, all pots were watered by sub-irrigation in greenhouse trays. Pots for the pre-emergence phase were seeded one day before treatment.
(§2) Planting dates for the post-emergence phase were varied so that all seedlings would reach the desired stage of development simultaneously. The proper stage of seedling development for treatment in the post-emergence phase is as follows:
(§3) Compounds were tested at rates of application equivalent to 8 lbs. of actual compound per acre in a spray volume of 38 gallons per acre. Spray hood constants required to deliver the above volume are as follows:
Two weeks after treatment, pre- and post-emergence injury or control was visually rated, and the results were as shown in the following tables. Pre-emergence data are provided in TABLE III and post-emergence data are provided in TABLE IV, for compounds having the formula illustrated in TABLE I. Correspondingly, pre-emergence and post-emergence data, respectively, are set forth in TABLES V AND VI, for compounds having the formula illustrated in TABLE II.

Amaranth pigweed (PW) = test: Post-emergence herbicide test, amaranth pigweed; type: in vivo, Amaranthus retroflexus; conditions: 336 h, 8 lb/acre, two weeks after treatment
Description: as §1, §2
Pigweed and turnips: 1 or 2 true leaves above visible cotyledons.
as §3
(§4) Formulations for spray applications were prepared in 50 ml volumes with the following three components:
(§5) Formulations for the 4 lbs/acre rate were prepared by adjusting the amount of active ingredient accordingly.
(§6) Spray applications were made in a hood containing a removable belt and fixed spray nozzle. […]

Cotton (CT) = test: Post-emergence herbicide test, cotton; type: in vivo, Gossypium hirsutum var. DPL smooth leaf; conditions: Gossypium hirsutum, 336 h, 2 lb/acre, two weeks after treatment
Description: Cotton (CT)--Gossypium hirsutum var. DPL smooth leaf
as §1, §2
Cotton: first true leaf 1" in length; expanded cotyledons.
as §3, §4, §5, §6

Corn (CN) = test: Post-emergence herbicide test, corn; type: in vivo; conditions: Zea mays, 336 h, 2 lb/acre, two weeks after treatment
Description: as §1, §2, §3, §4, §5
Spray applications were made in a hood containing a removable belt and fixed spray nozzle. For passage through the spray hood, one pot of each specie (pre-emergence phase) was placed on the rear half of the flat. Treatments were removed to the greenhouse after spraying. […]

Row | SMILES | selectivity toward a certain crop or weed species (crops and weed species) | herbicidal effectiveness on a variety of crops and weed species (crops and weed species) | further results
1 | CCc1nnc(NC(=O)N(C)C)s1 [Example 20] | more selective when applied to a certain crop or weed species | – | –
2 | C=CCNC(=O)Nc1nnc(C(F)(F)F)s1 [Example 12] | – | – | selectivity post-emergence versus pre-emergence (crops and weed species): control post-emergence growth, while have little effect in regard to pre-emergence
3 | CNC(=O)Nc1nnc(CC(C)C)s1 [Example 21] | more selective when applied to a certain crop or weed species | – | –
4 | O=C(Nc1ccc(Cl)c(Cl)c1)Nc1nnc(C(F)(F)F)s1 [Example 16] | more selective when applied to a certain crop or weed species | – | pest or weed control at 8966.8 g/ha (Amaranth pigweed (PW)): 100%
5 | CNC(=O)N(C)c1nnc(C(F)(F)F)s1 [Example 36] | – | extremely effective | –
6 | CCNC(=O)Nc1nnc(C(F)(F)F)s1 [Example 9] | more selective when applied to a certain crop or weed species | – | –
7 | Cc1nnc(NC(=O)N(C)C)s1 [Example 19] | – | – | selectivity post-emergence versus pre-emergence (crops and weed species): The converse of this relationship
8 | O=C(Nc1ccc(Cl)cc1)Nc1nnc(C(F)(F)F)s1 [Example 15] | more selective when applied to a certain crop or weed species | – | –
9 | CNC(=O)Nc1nnc(SC)s1 [Example 26] | – | extremely effective | –
10 | CNC(=O)Nc1nnc(COC)s1 [Example 25] | more selective when applied to a certain crop or weed species | – | –
11 | CNC(=O)Nc1nnc(SCCCCl)s1 [Example 61] | – | – | pest or weed control at 2241.7 g/ha (Cotton (CT)): 40%; pest or weed control at 2241.7 g/ha (Corn (CN)): 100%
12 | CCN(C(=O)NC)c1nnc(C(F)(F)F)s1 [Example 37] | – | extremely effective | –
13 | CSc1nnc(N(C)C(=O)N(C)C)s1 [Example 5, 1,1,3-trimethyl-3-[5-methylthio-2-(1,3,4-thiadiazolyl)] urea] | – | extremely effective | –
14 | CN(C)C(=O)Nc1nnc(C(F)(F)F)s1 [Example 2, 1,1-Dimethyl-3-[5-Trifluoromethyl-2-(1,3,4-Thiadiazolyl)] Urea] | – | extremely effective | –
15 | CNC(=O)Nc1nnc(C(F)(F)F)s1 [Example 1, 1-Methyl-3-[5-Trifluoromethyl-2-(1,3,4-Thiadiazolyl)] Urea] | – | extremely effective | –
16 | CNC(=O)Nc1nncs1 [Example 35] | more selective when applied to a certain crop or weed species | – | –
